In brackets after ≈: the same amount, converted by molar mass. Read-outs that look alike come from different tables or passages of the source.
Assays:
[1] = system: Mycobacterium tuberculosis H37Rv strain; assay: Anti-tubercular properties (alamar blue microplate MIC); type: cell-based; details: 168 h, seven days at 37° C., read-out: anti-mycobacterial activity (MIC)
DNA gyrase from E. coli = target: T1, DNA gyrase from E. coli (Escherichia coli, UniProt P0AES4+P0AES6); assay: Inhibitory activities on E. coli DNA gyrase (Inspiralis assay); type: biochemical
T1 construct: purchased Inspiralis
T1 sequence (P0AES4 whole entry, one chain of several): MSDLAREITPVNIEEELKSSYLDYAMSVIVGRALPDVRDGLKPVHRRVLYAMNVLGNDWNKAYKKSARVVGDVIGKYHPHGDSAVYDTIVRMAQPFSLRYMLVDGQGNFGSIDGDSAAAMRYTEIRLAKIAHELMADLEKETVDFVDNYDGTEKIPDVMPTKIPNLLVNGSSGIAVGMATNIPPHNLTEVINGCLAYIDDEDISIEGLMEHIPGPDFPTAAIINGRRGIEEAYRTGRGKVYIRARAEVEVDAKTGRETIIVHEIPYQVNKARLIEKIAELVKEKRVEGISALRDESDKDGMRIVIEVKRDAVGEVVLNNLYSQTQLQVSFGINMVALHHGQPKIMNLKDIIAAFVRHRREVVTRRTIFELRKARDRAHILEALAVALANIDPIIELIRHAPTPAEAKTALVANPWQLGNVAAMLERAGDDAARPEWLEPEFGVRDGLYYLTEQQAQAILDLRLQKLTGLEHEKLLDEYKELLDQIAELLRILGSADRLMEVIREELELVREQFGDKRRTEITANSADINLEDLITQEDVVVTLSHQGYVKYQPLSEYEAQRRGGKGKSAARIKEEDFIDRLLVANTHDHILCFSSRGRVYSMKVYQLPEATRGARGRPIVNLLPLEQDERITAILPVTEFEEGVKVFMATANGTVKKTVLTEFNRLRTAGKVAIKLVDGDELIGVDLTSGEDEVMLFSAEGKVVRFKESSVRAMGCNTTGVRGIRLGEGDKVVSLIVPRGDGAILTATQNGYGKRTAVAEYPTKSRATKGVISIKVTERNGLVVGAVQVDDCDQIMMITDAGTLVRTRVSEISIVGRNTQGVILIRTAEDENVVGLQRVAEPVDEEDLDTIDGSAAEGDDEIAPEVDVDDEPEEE
Description: Inhibitory potencies were investigated utilizing the Inspiralis assay on streptavidin-coated 96-well microtiter plates. First, the plates were rehydrated with buffer (20 mM Tris-HCl with pH 7.6, 0.01% w/v BSA, 0.05% v/v Tween 20, 137 mM NaCl) and the biotinylated oligonucleotide was then immobilized. After washing off the unbound oligonucleotide, the enzyme test was performed. […] Reaction solutions were incubated at 37° C. for 30 min. After that, the TF buffer (50 mM NaOAc with pH 5.0, 50 mM NaCl and 50 mM MgCl2) was added to terminate the enzymatic reaction. After additional incubation for 30 min at rt, during which biotinoligonucleotide-plasmid triplex was formed, the unbound plasmid was washed off using TF buffer and SybrGOLD in T10 buffer (10 mM Tris HCl with pH 8.0 and 1 mM EDTA) was added. The fluorescence was measured with a microplate reader (BioTek Synergy H4, excitation: 485 nm, emission: 535 nm). Initial screening was done at 100 or 10 μM concentration of inhibitors. […] GraphPad Prism software was used to calculate the IC50 values. The result is given as the average value of three independent measurements.

[2] = system: Klebsiella pneumonia MTCC 618; assay: In vitro antibacterial activity (MIC, CLSI M07-A10 dilution); type: cell-based; details: Klebsiella pneumoniae, MTCC618
[3] = system: Escherichia coli MTCC 443; assay: as above; type: cell-based; details: MTCC443
[4] = system: Staphylococcus epidermidis; assay: as above; type: cell-based
[5] = system: Staphylococcus aureus ATCC 29213; assay: as above; type: cell-based; details: ATCC29213
[6] = system: Pseudomonas aeruginosa MTCC 741; assay: as above; type: cell-based; details: MTCC741
[7] = system: Enterococcus faecium ATCC 35667; assay: as above; type: cell-based; details: ATCC35667
[8] = system: Enterococcus faecium ATCC 51559 (VRE resistant); assay: as above; type: cell-based
[9] = system: Staphylococcus aureus ATCC BAA-1556 (MERSA resistant); assay: as above; type: cell-based; details: ATCCBAA1556
[10] = system: Bacillus subtilis MTCC 441; assay: as above; type: cell-based; details: MTCC441

## CNc1cc(F)cc2cc3[nH]c(-c4ccc(C(=O)O)cc4CN(C)C4CCCCC4)cc3nc12 [Compound 4, 3-((cyclohexyl(methyl)amino)methyl)-4-(7-fluoro-5-(methylamino)-1H-pyrrolo[3,2-b]quinolin-2-yl)benzoic acid]
[1]
  MIC: 8 µg/mL (≈ 17.4 µM)
DNA gyrase from E. coli
  IC50: 32 nM

## CN[C@H](CC(C)C)C(=O)N[C@H]1C(=O)N[C@@H](CC(N)=O)C(=O)N[C@H]2C(=O)N[C@H]3C(=O)N[C@H](C(=O)N[C@H](C(=O)O)c4cc(O)cc(O)c4-c4cc3ccc4O)[C@H](O)c3ccc(c(Cl)c3)Oc3cc2cc(c3O[C@@H]2O[C@H](CO)[C@@H](O)[C@H](O)[C@H]2O[C@H]2C[C@](C)(N)[C@H](O)[C@H](C)O2)Oc2ccc(cc2Cl)[C@H]1O [Vancomycin, reference compound]
[2]
  MIC: > 128 µg/mL

## CCCCCN(C)Cc1cc(C(=O)O)ccc1-c1cc2nc3c(NC)cc(F)cc3cc2[nH]1 [Compound 6, 4-(7-fluoro-5-(methylamino)-1H-pyrrolo[3,2-b]quinolin-2-yl)-3-((methyl(pentyl)amino)methyl)benzoic acid]
[3]
  MIC: 8 µg/mL (≈ 17.8 µM)
[4]
  MIC: 1 µg/mL (≈ 2.23 µM)
[5]
  MIC: 1 µg/mL (≈ 2.23 µM)
[6]
  MIC: 1 µg/mL (≈ 2.23 µM)
[7]
  MIC: 1 µg/mL (≈ 2.23 µM)
[8]
  MIC: 1.25 µg/mL (≈ 2.79 µM)
[9]
  MIC: 1 µg/mL (≈ 2.23 µM)
[2]; Klebsiella pneumonia MTCC 618, read-out: MIC
  MIC: 1.25 µg/mL (≈ 2.79 µM)
[10]
  MIC: 0.75 µg/mL (≈ 1.67 µM)

Source: patent publication US11780838B1, “Pyrrolo[3,2-b]quinoline compounds as antibacterial agents” (King Faisal University, priority 2023, dated 2023)
